Legend:
Assay type in all cases: cell-based
CCRF-CEM = experiment: NCI60 growth inhibition, CCRF-CEM; conditions: Leukemia
Summary of the method: (§1)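 Cell growth inhibition measured in the standard NCI 60-cancer-cell-line panel.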

HL-60(TB) = experiment: NCI60 growth inhibition, HL-60(TB); conditions: Leukemia
Summary of the method: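 Read-out: growth inhibition in the NCI60 screen of 60 cancer cell lines.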

K-562 = experiment: NCI60 growth inhibition, K-562; conditions: Leukemia
Summary of the method: as §1

MOLT-4 = experiment: NCI60 growth inhibition, MOLT-4; conditions: Leukemia
Summary of the method: as §1

RPMI-8226 = experiment: NCI60 growth inhibition, RPMI-8226; conditions: Leukemia
Summary of the method: as §1

SR = experiment: NCI60 growth inhibition, SR; conditions: Leukemia
Summary of the method: as §1

A549/ATCC = experiment: NCI60 growth inhibition, A549/ATCC; conditions: Non-Small Cell Lung Cancer
Summary of the method: as §1

EKVX = experiment: NCI60 growth inhibition, EKVX; conditions: Non-Small Cell Lung Cancer
Summary of the method: as §1

HOP-62 = experiment: NCI60 growth inhibition, HOP-62; conditions: Non-Small Cell Lung Cancer; also: test concentration or dose not given here
Summary of the method: as §1

HOP-92 = experiment: NCI60 growth inhibition, HOP-92; conditions: Non-Small Cell Lung Cancer
Summary of the method: as §1

NCI-H226 = experiment: NCI60 growth inhibition, NCI-H226; conditions: Non-Small Cell Lung Cancer; also: test concentration or dose not given here
Summary of the method: as §1

NCI-H23 = experiment: NCI60 growth inhibition, NCI-H23; conditions: Non-Small Cell Lung Cancer
Summary of the method: as §1

NCI-H322M = experiment: NCI60 growth inhibition, NCI-H322M; conditions: Non-Small Cell Lung Cancer
Summary of the method: as §1

NCI-H460 = experiment: NCI60 growth inhibition, NCI-H460; conditions: Non-Small Cell Lung Cancer
Summary of the method: as §1

NCI-H522 = experiment: NCI60 growth inhibition, NCI-H522; conditions: Non-Small Cell Lung Cancer
Summary of the method: as §1

COLO 205 = experiment: NCI60 growth inhibition, COLO 205; conditions: Colon Cancer
Summary of the method: as §1

HCC-2998 = experiment: NCI60 growth inhibition, HCC-2998; conditions: Colon Cancer
Summary of the method: as §1

HCT-116 = experiment: NCI60 growth inhibition, HCT-116; conditions: Colon Cancer
Summary of the method: as §1

HCT-15 = experiment: NCI60 growth inhibition, HCT-15; conditions: Colon Cancer; also: test concentration or dose not given here
Summary of the method: as §1

HT29 = experiment: NCI60 growth inhibition, HT29; conditions: Colon Cancer
Summary of the method: as §1

KM12 = experiment: NCI60 growth inhibition, KM12; conditions: Colon Cancer; also: test concentration or dose not given here
Summary of the method: as §1

SW-620 = experiment: NCI60 growth inhibition, SW-620; conditions: Colon Cancer; also: test concentration or dose not given here
Summary of the method: as §1

SF-268 = experiment: NCI60 growth inhibition, SF-268; conditions: CNS Cancer; also: test concentration or dose not given here
Summary of the method: as §1

SF-295 = experiment: NCI60 growth inhibition, SF-295; conditions: CNS Cancer; also: test concentration or dose not given here
Summary of the method: as §1

SF-539 = experiment: NCI60 growth inhibition, SF-539; conditions: CNS Cancer
Summary of the method: as §1

SNB-19 = experiment: NCI60 growth inhibition, SNB-19; conditions: CNS Cancer; also: test concentration or dose not given here
Summary of the method: as §1

SNB-75 = experiment: NCI60 growth inhibition, SNB-75; conditions: CNS Cancer; also: test concentration or dose not given here
Summary of the method: as §1

U251 = experiment: NCI60 growth inhibition, U251; conditions: CNS Cancer
Summary of the method: as §1

LOX IMVI = experiment: NCI60 growth inhibition, LOX IMVI; conditions: Melanoma
Summary of the method: as §1

MALME-3M = experiment: NCI60 growth inhibition, MALME-3M; conditions: Melanoma
Summary of the method: as §1

M14 = experiment: NCI60 growth inhibition, M14; conditions: Melanoma
Summary of the method: as §1

MDA-MB-435 = experiment: NCI60 growth inhibition, MDA-MB-435; conditions: Melanoma
Summary of the method: as §1

SK-MEL-2 = experiment: NCI60 growth inhibition, SK-MEL-2; conditions: Melanoma; also: test concentration or dose not given here
Summary of the method: as §1

SK-MEL-28 = experiment: NCI60 growth inhibition, SK-MEL-28; conditions: Melanoma
Summary of the method: as §1

SK-MEL-5 = experiment: NCI60 growth inhibition, SK-MEL-5; conditions: Melanoma
Summary of the method: as §1

UACC-257 = experiment: NCI60 growth inhibition, UACC-257; conditions: Melanoma; also: test concentration or dose not given here
Summary of the method: as §1

UACC-62 = experiment: NCI60 growth inhibition, UACC-62; conditions: Melanoma; also: test concentration or dose not given here
Summary of the method: as §1

IGROV1 = experiment: NCI60 growth inhibition, IGROV1; conditions: Ovarian Cancer
Summary of the method: as §1

OVCAR-3 = experiment: NCI60 growth inhibition, OVCAR-3; conditions: Ovarian Cancer
Summary of the method: as §1

OVCAR-4 = experiment: NCI60 growth inhibition, OVCAR-4; conditions: Ovarian Cancer; also: test concentration or dose not given here
Summary of the method: as §1

OVCAR-5 = experiment: NCI60 growth inhibition, OVCAR-5; conditions: Ovarian Cancer
Summary of the method: as §1

NCI/ADR-RES = experiment: NCI60 growth inhibition, NCI/ADR-RES; conditions: Ovarian Cancer
Summary of the method: as §1

SK-OV-3 = experiment: NCI60 growth inhibition, SK-OV-3; conditions: Ovarian Cancer
Summary of the method: as §1

786-0 = experiment: NCI60 growth inhibition, 786-0; conditions: Renal Cancer
Summary of the method: as §1

A498 = experiment: NCI60 growth inhibition, A498; conditions: Renal Cancer; also: test concentration or dose not given here
Summary of the method: as §1

ACHN = experiment: NCI60 growth inhibition, ACHN; conditions: Renal Cancer
Summary of the method: as §1

CAKI-1 = experiment: NCI60 growth inhibition, CAKI-1; conditions: Renal Cancer; also: test concentration or dose not given here
Summary of the method: as §1

RXF 393 = experiment: NCI60 growth inhibition, RXF 393; conditions: Renal Cancer
Protocol: (§2) Representative compounds were tested in 60 cell lines (NCI60) at the National Cancer Institute, Developmental Therapeutics Program.
(§3) Representative compounds were tested in a panel of 60 cancer cells (NCI 60) at the National Cancer Institute. Growth inhibition are shown in table 2, table 3, table 4, table 5, and FIG. 1, FIG. 2, FIG. 3, FIG. 4, FIG. 5.

SN12C = experiment: NCI60 growth inhibition, SN12C; conditions: Renal Cancer
Summary of the method: as §1

TK-10 = experiment: NCI60 growth inhibition, TK-10; conditions: Renal Cancer
Summary of the method: as §1

UO-31 = experiment: NCI60 growth inhibition, UO-31; conditions: Renal Cancer
Summary of the method: as §1

PC-3 = experiment: NCI60 growth inhibition, PC-3; conditions: Prostate Cancer
Summary of the method: as §1

DU-145 = experiment: NCI60 growth inhibition, DU-145; conditions: Prostate Cancer
Summary of the method: as §1

MCF7 = experiment: NCI60 growth inhibition, MCF7; conditions: Breast Cancer
Summary of the method: as §1

MDA-MB-231/ATCC = experiment: NCI60 growth inhibition, MDA-MB-231/ATCC; conditions: Breast Cancer
Summary of the method: as §1

HS 578T = experiment: NCI60 growth inhibition, HS 578T; conditions: Breast Cancer
Summary of the method: as §1

BT-549 = experiment: NCI60 growth inhibition, BT-549; conditions: Breast Cancer
Protocol: as §2, §3

T-47D = experiment: NCI60 growth inhibition, T-47D; conditions: Breast Cancer
Summary of the method: as §1

MDA-MB-468 = experiment: NCI60 growth inhibition, MDA-MB-468; conditions: Breast Cancer; also: test concentration or dose not given here
Summary of the method: as §1

SMILES: CN1CCN(c2ccc3nc4c(nc3c2C(F)(F)F)C(=O)c2ncccc2C4=O)CC1 [Compound 50, 9-(4-methylpiperazin-1-yl)-10-(trifluoromethyl)pyrido[2,3-b]phenazine-5,12-dione]
- Growth inhibition (% control) GIPRCNT (CCRF-CEM): 5.713 % control
- Growth inhibition (% control) GIPRCNT (HL-60(TB)): −50.3957 % control
- Growth inhibition (% control) GIPRCNT (K-562): −6.717 % control
- Growth inhibition (% control) GIPRCNT (MOLT-4): −36.4229 % control
- Growth inhibition (% control) GIPRCNT (RPMI-8226): 27.57 % control
- Growth inhibition (% control) GIPRCNT (SR): −27.1607 % control
- Growth inhibition (% control) GIPRCNT (A549/ATCC): −36.1751 % control
- Growth inhibition (% control) GIPRCNT (EKVX): 5.133 % control
- Growth inhibition (% control) GIPRCNT (HOP-62): −63.3298 % control
- Growth inhibition (% control) GIPRCNT (HOP-92): 27.5 % control
- Growth inhibition (% control) GIPRCNT (NCI-H226): −78.8735 % control
- Growth inhibition (% control) GIPRCNT (NCI-H23): −39.656 % control
- Growth inhibition (% control) GIPRCNT (NCI-H322M): 36.63 % control
- Growth inhibition (% control) GIPRCNT (NCI-H460): −56.5637 % control
- Growth inhibition (% control) GIPRCNT (NCI-H522): −67.5222 % control
- Growth inhibition (% control) GIPRCNT (COLO 205): −94.9856 % control
- Growth inhibition (% control) GIPRCNT (HCC-2998): −26.9174 % control
- Growth inhibition (% control) GIPRCNT (HCT-116): 0.9838 % control
- Growth inhibition (% control) GIPRCNT (HCT-15): −47.4718 % control
- Growth inhibition (% control) GIPRCNT (HT29): −55.5144 % control
- Growth inhibition (% control) GIPRCNT (KM12): 13 % control
- Growth inhibition (% control) GIPRCNT (SW-620): 4.709 % control
- Growth inhibition (% control) GIPRCNT (SF-268): 1.957 % control
- Growth inhibition (% control) GIPRCNT (SF-295): −61.5894 % control
- Growth inhibition (% control) GIPRCNT (SF-539): −52.4375 % control
- Growth inhibition (% control) GIPRCNT (SNB-19): 17.8598 % control
- Growth inhibition (% control) GIPRCNT (SNB-75): 5.296 % control
- Growth inhibition (% control) GIPRCNT (U251): 0.9108 % control
- Growth inhibition (% control) GIPRCNT (LOX IMVI): −50.1492 % control
- Growth inhibition (% control) GIPRCNT (MALME-3M): −99.1953 % control
- Growth inhibition (% control) GIPRCNT (M14): −89.6374 % control
- Growth inhibition (% control) GIPRCNT (MDA-MB-435): −91.762 % control
- Growth inhibition (% control) GIPRCNT (SK-MEL-2): −34.5495 % control
- Growth inhibition (% control) GIPRCNT (SK-MEL-28): 5.495 % control
- Growth inhibition (% control) GIPRCNT (SK-MEL-5): −99.7024 % control
- Growth inhibition (% control) GIPRCNT (UACC-257): −82.2969 % control
- Growth inhibition (% control) GIPRCNT (UACC-62): −82.4675 % control
- Growth inhibition (% control) GIPRCNT (IGROV1): −32.57 % control
- Growth inhibition (% control) GIPRCNT (OVCAR-3): −27.9399 % control
- Growth inhibition (% control) GIPRCNT (OVCAR-4): −91.1398 % control
- Growth inhibition (% control) GIPRCNT (OVCAR-5): −90.4043 % control
- Growth inhibition (% control) GIPRCNT (NCI/ADR-RES): 10.14 % control
- Growth inhibition (% control) GIPRCNT (SK-OV-3): 29.68 % control
- Growth inhibition (% control) GIPRCNT (786-0): 36.69 % control
- Growth inhibition (% control) GIPRCNT (A498): −21.1398 % control
- Growth inhibition (% control) GIPRCNT (ACHN): −44.1558 % control
- Growth inhibition (% control) GIPRCNT (CAKI-1): 33.14 % control
- Growth inhibition (% control) GIPRCNT (RXF 393): 38.36 % control
- Growth inhibition (% control) GIPRCNT (SN12C): −95.418 % control
- Growth inhibition (% control) GIPRCNT (TK-10): 80.29 % control
- Growth inhibition (% control) GIPRCNT (UO-31): −19.0631 % control
- Growth inhibition (% control) GIPRCNT (PC-3): 8.007 % control
- Growth inhibition (% control) GIPRCNT (DU-145): −85.7143 % control
- Growth inhibition (% control) GIPRCNT (MCF7): −57.016 % control
- Growth inhibition (% control) GIPRCNT (MDA-MB-231/ATCC): −5.992 % control
- Growth inhibition (% control) GIPRCNT (HS 578T): −15.9764 % control
- Growth inhibition (% control) GIPRCNT (BT-549): −97.0139 % control
- Growth inhibition (% control) GIPRCNT (T-47D): −28.3961 % control
- Growth inhibition (% control) GIPRCNT (MDA-MB-468): −62.4106 % control
